Assays:
Format in all cases: cell-based
human TLR7 = target: T1, human TLR7 (Homo sapiens, UniProt Q9NYK1); assay: TLR7 inhibition reporter assay (HEK-Blue cells, SEAP reporter, gardiquimod stimulation); settings: HEK-Blue cells overexpressing human TLR7, SEAP reporter, gardiquimod 7.5 μM
T1 construct: host or cells: HEK-Blue cells
T1 sequence (Q9NYK1 27-1049): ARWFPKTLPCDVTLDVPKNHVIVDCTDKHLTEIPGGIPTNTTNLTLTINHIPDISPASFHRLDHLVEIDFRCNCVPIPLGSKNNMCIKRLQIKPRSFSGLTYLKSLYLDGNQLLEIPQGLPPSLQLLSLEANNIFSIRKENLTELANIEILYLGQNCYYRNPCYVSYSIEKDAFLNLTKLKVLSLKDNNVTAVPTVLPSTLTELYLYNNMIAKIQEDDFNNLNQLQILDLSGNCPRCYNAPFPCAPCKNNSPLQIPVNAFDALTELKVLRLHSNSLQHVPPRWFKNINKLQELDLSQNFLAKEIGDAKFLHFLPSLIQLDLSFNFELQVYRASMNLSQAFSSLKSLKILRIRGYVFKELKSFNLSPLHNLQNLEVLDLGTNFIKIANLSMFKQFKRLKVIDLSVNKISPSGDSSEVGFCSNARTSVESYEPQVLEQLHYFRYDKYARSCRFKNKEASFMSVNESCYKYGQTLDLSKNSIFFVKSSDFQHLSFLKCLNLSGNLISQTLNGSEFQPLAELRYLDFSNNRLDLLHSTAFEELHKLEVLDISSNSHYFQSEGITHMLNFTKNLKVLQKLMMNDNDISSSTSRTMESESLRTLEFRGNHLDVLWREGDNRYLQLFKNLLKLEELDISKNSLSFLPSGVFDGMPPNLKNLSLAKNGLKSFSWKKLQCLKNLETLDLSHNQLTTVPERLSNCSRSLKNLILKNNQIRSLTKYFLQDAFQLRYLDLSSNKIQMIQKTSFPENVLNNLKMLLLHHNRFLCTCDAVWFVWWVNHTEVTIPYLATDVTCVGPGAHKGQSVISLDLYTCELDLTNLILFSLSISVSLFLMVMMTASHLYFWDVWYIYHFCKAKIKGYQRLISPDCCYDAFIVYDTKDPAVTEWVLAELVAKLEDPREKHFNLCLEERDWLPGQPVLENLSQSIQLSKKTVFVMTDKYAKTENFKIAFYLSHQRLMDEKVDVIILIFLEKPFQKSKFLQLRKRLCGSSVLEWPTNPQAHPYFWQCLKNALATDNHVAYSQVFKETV
Summary of the method: (§1)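 HEK-Blue cells with NF-κB/AP-1-driven SEAP reporter, pre-treated 30 min at room temperature with compound (0.05 nM-50 μM). Stimulants: gardiquimod 7.5 μM (TLR7), R848 15.9 μM (TLR8) or ODN2006 5 nM (TLR9). SEAP measured after 22 h at 37° C.; percent inhibition versus agonist-plus-DMSO and known-inhibitor wells.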

human TLR8 = target: T2, human TLR8 (Homo sapiens, UniProt Q9NR97); assay: TLR8 inhibition reporter assay (HEK-Blue cells, SEAP reporter, R848 stimulation); settings: HEK-Blue cells overexpressing human TLR8, SEAP reporter, R848 15.9 μM
T2 construct: host or cells: HEK-Blue cells
T2 sequence (Q9NR97 27-1041): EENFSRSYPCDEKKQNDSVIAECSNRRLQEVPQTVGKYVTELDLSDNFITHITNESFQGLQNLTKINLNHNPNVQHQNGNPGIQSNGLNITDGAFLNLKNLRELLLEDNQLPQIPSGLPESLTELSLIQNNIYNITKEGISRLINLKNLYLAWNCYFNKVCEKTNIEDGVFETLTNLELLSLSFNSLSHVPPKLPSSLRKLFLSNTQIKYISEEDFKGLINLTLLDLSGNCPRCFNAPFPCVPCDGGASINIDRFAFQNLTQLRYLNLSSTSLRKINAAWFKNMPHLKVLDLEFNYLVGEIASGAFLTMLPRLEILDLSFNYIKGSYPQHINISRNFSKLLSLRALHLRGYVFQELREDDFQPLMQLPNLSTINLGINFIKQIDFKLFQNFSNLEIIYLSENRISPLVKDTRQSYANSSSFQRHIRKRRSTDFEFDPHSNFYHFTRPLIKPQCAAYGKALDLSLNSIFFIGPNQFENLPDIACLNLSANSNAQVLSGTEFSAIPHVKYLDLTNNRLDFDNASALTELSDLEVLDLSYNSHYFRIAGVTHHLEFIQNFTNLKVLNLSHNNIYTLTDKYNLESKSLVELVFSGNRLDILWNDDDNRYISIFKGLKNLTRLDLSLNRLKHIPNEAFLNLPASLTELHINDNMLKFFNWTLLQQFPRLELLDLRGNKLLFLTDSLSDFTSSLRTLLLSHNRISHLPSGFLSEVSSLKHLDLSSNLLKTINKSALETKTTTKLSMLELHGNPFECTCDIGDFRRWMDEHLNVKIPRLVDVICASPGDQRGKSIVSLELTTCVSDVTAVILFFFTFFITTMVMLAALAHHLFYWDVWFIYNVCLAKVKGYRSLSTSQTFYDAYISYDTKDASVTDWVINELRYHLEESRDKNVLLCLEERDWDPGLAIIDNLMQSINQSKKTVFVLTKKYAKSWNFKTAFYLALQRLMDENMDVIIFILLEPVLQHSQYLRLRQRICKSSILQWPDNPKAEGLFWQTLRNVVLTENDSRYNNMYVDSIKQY
Summary of the method: as §1

human TLR9 = target: T3, human TLR9 (Homo sapiens, UniProt Q9NR96); assay: TLR9 inhibition reporter assay (HEK-Blue cells, SEAP reporter, ODN2006 stimulation); settings: HEK-Blue cells overexpressing human TLR9, SEAP reporter, ODN2006 5 nM
T3 construct: host or cells: HEK-Blue cells
T3 sequence (Q9NR96 26-1032): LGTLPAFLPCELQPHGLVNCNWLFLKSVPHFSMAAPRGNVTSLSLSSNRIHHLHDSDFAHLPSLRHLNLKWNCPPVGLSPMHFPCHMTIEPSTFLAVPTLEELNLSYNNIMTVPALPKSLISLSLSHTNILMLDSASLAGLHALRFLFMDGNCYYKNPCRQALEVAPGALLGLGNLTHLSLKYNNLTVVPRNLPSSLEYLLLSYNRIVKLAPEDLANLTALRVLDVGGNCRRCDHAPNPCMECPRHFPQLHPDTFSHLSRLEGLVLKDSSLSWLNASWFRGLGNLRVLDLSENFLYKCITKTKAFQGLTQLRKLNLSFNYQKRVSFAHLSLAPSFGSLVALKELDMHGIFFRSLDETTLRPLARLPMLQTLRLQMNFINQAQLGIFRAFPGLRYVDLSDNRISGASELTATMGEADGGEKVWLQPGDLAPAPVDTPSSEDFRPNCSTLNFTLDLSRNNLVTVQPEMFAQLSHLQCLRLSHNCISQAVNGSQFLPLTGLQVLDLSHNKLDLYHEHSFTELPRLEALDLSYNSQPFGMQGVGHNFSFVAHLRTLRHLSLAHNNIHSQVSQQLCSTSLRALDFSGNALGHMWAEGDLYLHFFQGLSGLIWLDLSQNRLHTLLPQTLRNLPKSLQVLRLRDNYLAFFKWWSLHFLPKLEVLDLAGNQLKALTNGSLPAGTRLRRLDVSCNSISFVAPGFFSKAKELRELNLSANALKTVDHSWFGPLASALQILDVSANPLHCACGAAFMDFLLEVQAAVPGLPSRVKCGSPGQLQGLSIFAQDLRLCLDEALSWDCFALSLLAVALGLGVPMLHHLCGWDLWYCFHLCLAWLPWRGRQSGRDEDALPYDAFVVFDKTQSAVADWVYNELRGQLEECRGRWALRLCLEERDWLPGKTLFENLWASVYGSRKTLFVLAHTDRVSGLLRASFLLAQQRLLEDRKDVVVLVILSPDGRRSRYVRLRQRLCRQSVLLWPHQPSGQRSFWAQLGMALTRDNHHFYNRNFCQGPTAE
Summary of the method: as §1

Compound	IC50 (human TLR7)	IC50 (human TLR8)	IC50 (human TLR9)
Cc1cc(-c2[nH]c3ccc(C4CCCN(CC(=O)N(C)C)C4)cc3c2C(C)C)cc(C)n1 (stereo not drawn) [Example 233]	15 nM	56 nM	1350 nM
CNC(=O)CN1CCOC(c2ccc3[nH]c(-c4cc(C)nc(C)c4)c(C(C)C)c3c2)C1 (stereo not drawn) [Example 323]	35 nM	54 nM	> 50000 nM
COc1cc(-c2[nH]c3ccc(C4CCC(NC5(C)COC5)CC4)cc3c2C(C)C)cn2ncnc12 (single isomer, unassigned) [Example 45]	1 nM	3.8 nM	1990 nM
COc1cc(-c2[nH]c3ccc(C4CC(N(C)CCS(C)(=O)=O)C4)cc3c2C(C)C)cn2ncnc12 (stereo not drawn) [Example 583]	0.99 nM	0.32 nM	31000 nM
COc1ccc(-c2[nH]c3ccc(C4CCC(O)CC4)cc3c2C(C)C)cc1OC (stereo not drawn) [Example 452]	242 nM	737 nM	46500 nM
COCCN1CCOC(c2ccc3[nH]c(-c4cc(OC)c5ncnn5c4)c(C(C)C)c3c2)C1 (stereo not drawn) [Example 345]	6 nM	12 nM	8610 nM
Cc1cc(-c2[nH]c3ccc(C4CCC(C(=O)NC5CCN(C(C)C)CC5)CC4)cc3c2C(C)C)cn2ncnc12 (stereo not drawn) [Example 158]	0.47 nM	3.2 nM	2290 nM
Cc1cc(-c2[nH]c3ccc(C4CN(C(C)C)CCO4)cc3c2C(C)C)cc(C)n1 (stereo not drawn) [Example 303]	15 nM	12 nM	699 nM
Cc1cc(-c2[nH]c3ccc(C4CN(CCS(C)(=O)=O)C(C)(C)CO4)cc3c2C(C)C)cn2ncnc12 (stereo not drawn) [Example 384]	13 nM	11 nM	30100 nM
COc1cc(-c2[nH]c3ccc(CC4CN(C(C)C)C4)cc3c2C(C)C)cn2ncnc12 [Example 433]	2 nM	3 nM	2190 nM
COc1cc(-c2[nH]c3ccc(C4CCC(NC(=O)CNC5COC5)CC4)cc3c2C(C)C)cn2ncnc12 (stereo not drawn) [Example 139]	18 nM	40 nM	> 50000 nM
Cc1cc(-c2[nH]c3ccc(C4CCC(C(=O)N5CCCCC5)CC4)cc3c2C(C)C)cn2ncnc12 (single isomer, unassigned) [Example 160]	9 nM	154 nM	30300 nM
COc1cc(-c2[nH]c3ccc(C4CCC(N5CCCC(F)(F)C5)CC4)cc3c2C(C)C)cn2ncnc12 (stereo not drawn) [Example 35]	55 nM	122 nM	18000 nM
Cc1c(-c2[nH]c3ccc(C4CN(CC(N)=O)CCO4)cc3c2C(C)C)cn2ncnc2c1C (stereo not drawn) [Example 320]	16 nM	54 nM	> 50000 nM
Cc1cc(-c2[nH]c3ccc(C4CN5CCC4CC5)cc3c2C(C)C)cc(C)n1 (single isomer, unassigned) [Example 362, 3-(2-(2,6-dimethylpyridin-4-yl)-3-isopropyl-1H-indol-5-yl)quinuclidine]	6 nM	14 nM	432 nM
COc1ccc(-c2[nH]c3ccc(C4CCCNC4)cc3c2C(C)C)cc1OC (stereo not drawn) [Example 592]	31 nM	10 nM	1470 nM
COc1cc(-c2[nH]c3ccc(C4CN(C(=O)CN(C)C)CCO4)cc3c2C(C)C)cn2ncnc12 (stereo not drawn) [Example 332]	0.65 nM	6.2 nM	2800 nM
Cc1cc(-c2[nH]c3ccc(C4CN(C)C(C)(C)CO4)cc3c2C(C)C)cn2ncnc12 (single isomer, unassigned) [Example 375, 2-(3-isopropyl-2-(8-methyl-[1,2,4]triazolo[1,5-a]pyridin-6-yl)-1H-indol-5-yl)-4,5,5-trimethylmorpholine]	1 nM	4.7 nM	2060 nM
COc1cc(-c2[nH]c3ccc(C4CCC(N5CCCC(F)(F)C5)CC4)cc3c2C(C)C)cn2ncnc12 (stereo not drawn) [Example 34]	5 nM	23 nM	20500 nM
Cc1c(-c2[nH]c3ccc(C4CNCCO4)cc3c2C(C)C)cn2ncnc2c1C (stereo not drawn) [Example 288]	0.61 nM	0.52 nM	3160 nM
Cc1c(-c2[nH]c3ccc(C4CN(C(=O)CN(C)C)CCO4)cc3c2C(C)C)cn2ncnc2c1C (stereo not drawn) [Example 330]	1 nM	3.4 nM	3330 nM
CNC1CCC(c2ccc3[nH]c(-c4cc(C)c5ncnn5c4)c(C(C)C)c3c2)CC1 (single isomer, unassigned) [Example 58]	2 nM	6.6 nM	3100 nM
CNCCN1CCCC(c2ccc3[nH]c(-c4ccnc(C)c4)c(C(C)C)c3c2)C1 (stereo not drawn) [Example 256]	226 nM	3.2 nM	611 nM
COc1cc(-c2[nH]c3ccc(C4CCC(N(C)C(C)C)CC4)cc3c2C(C)C)cn2ncnc12 (single isomer, unassigned) [Example 6, N-isopropyl-4-(3-isopropyl-2-(8-methoxy-[1,2,4]triazolo[1,5-a]pyridin-6-yl)-1H-indol-5-yl)-N-methylcyclohexanamine]	0.33 nM	1 nM	1210 nM
